Laboratory results from patent US20080260695A1, “Composition for prevention and/or treatment of cancer” (MICROBIO COMPANY LTD., priority 2007, published 2008).

System: colorectal cancer cell (HT-29)
Test: MTT assay, relative survival rate of colorectal cancer cell line
Type: cell-based
Settings: HT-29, 24 hours, control 100%
Description: The six components (fermented soy extract (Microbio Biotechnology®), oligomeric proanthocyanidin, epigallocatiechin gallate, spirulina, curcumin, and Antrodia camphorata) of Example 1 were classified to seven groups; the content of each group is listed in Table 2. Each group was respectively diluted 300×, 600×, 1200×, and 2400× with McCoy's 5a medium, and then colorectal cancer cell (HT-29, 80000 cell/well) line was treated with the diluted group A to group G. After 24 hours, the relative survival rates of the colorectal cancer cell line were detected by MTT assay. In a control group, the relative survival rate was 100%.

[1] = 300 × dilution in McCoy's 5a medium
[2] = 600 × dilution in McCoy's 5a medium
[3] = 1200 × dilution in McCoy's 5a medium
[4] = 2400 × dilution in McCoy's 5a medium

| Compound | Relatively survival rate (%) [1] [%] | Relatively survival rate (%) [2] [%] | Relatively survival rate (%) [3] [%] | Relatively survival rate (%) [4] [%] |
| --- | --- | --- | --- | --- |
| COc1cc(/C=C/C(=O)CC(=O)/C=C/c2ccc(O)c(OC)c2)ccc1O [Group C, curcumin] | 18 | 31 | 45 | 71 |
| epigallocatiechin gallate [Group B] | 23 | 50 | 66 | 81 |
